This is an account of results in US11459339B2, “Biaryl derivative, preparation method thereof and pharmaceutical application thereof” (Abbisko Therapeutics Co., Ltd., priority 2018, dated 2022).

Bounds are passed on as bounds.

The target of test [1] is interaction between PD-1 and PD-L1 (Homo sapiens (Human), UniProt Q9NZQ7). The test is described as follows: PD1-PDL1 HTRF binding activity test (Cisbio PD-1/PD-L1 binding assay kit). The following applies: read-out: PD1-PDL1 HTRF Binding Activity IC50. (In general: In TR-FRET formats the signal depends on donor and acceptor labels being close together.)
Chain of interaction between PD-1 and PD-L1 (Q9NZQ7 19-238): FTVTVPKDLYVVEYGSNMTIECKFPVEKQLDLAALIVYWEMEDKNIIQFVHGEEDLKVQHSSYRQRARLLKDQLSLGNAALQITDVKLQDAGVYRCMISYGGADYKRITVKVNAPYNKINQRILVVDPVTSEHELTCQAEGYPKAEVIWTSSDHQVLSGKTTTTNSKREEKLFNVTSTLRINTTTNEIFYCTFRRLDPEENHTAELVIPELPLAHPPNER
Test [2] has as its target interaction between PD-1 and PD-L1 expressed on cell surfaces (Homo sapiens (Human), UniProt Q9NZQ7). The test is described as follows: Jurkat reporter gene cellular assay (Jurkat/NF-κB-luc/PD1 cells cocultured with Raji-PD-L1 cells, OKT-3 stimulation). It is filed as cell-based. The following applies: NF-κB-luc reporter activation fold, 6 hrs; read-out: Cell Activity EC50. Put shortly:
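EC50 comes from non-linear regression of activation fold (compound reading over DMSO reading) against concentration. Read-out was luciferase signal 6 h after OKT-3-stimulated coculture of PD-1/NF-κB-luc Jurkat cells with PD-L1-expressing Raji cells, 5*10^4 cells each per well.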

Chain of interaction between PD-1 and PD-L1 expressed on cell surfaces (Q9NZQ7 19-290): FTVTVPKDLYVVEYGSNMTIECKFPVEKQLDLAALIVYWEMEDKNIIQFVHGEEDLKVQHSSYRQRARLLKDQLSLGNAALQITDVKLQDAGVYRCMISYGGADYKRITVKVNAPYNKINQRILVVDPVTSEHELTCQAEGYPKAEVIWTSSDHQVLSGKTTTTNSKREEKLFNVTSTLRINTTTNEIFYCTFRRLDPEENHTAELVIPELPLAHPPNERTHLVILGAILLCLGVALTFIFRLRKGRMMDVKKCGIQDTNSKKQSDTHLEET

As to `CCOC(=O)C[C@H](NCc1cnc(C(=O)Nc2cccc(-c3cccc(NC(=O)c4cc(C5CC5)c(CN[C@@H](CC(=O)OCC)C(=O)OCC)cn4)c3C)c2C)cc1C1CC1)C(=O)OCC` [Example 115, tetraethyl 2,2′-((((((2,2′-dimethyl-[1,1′-biphenyl]-3,3′-diyl)bis(azanediyl))bis(carbonyl))bis(4-cyclopropylpyridine-6,3-diyl))bis(methylene))bis(azanediyl)) (2S,2′S)-disuccinate], the concentration for half-maximal inhibition (IC50) in test [1] is greater than 400 nM. Besides, in test [2], the concentration for a half-maximal effect (EC50) is greater than 10000 nM.

In the case of `Cc1c(NC(=O)c2cc(C3CC3)c(CN[C@@H](CC(=O)O)C(=O)O)cn2)cccc1-c1cccc(NC(=O)c2cc(C3CC3)c(CN[C@@H](CC(=O)O)C(=O)O)cn2)c1C` [Example 116, (2S,2′S)-2,2′-((((((2,2′-dimethyl-[1,1′-biphenyl]-3,3′-diyl)bis(azanediyl))bis(carbonyl))bis(4-cyclopropylpyridine-6,3-diyl))bis(methylene))bis(azanediyl))disuccinic acid], the 50% inhibitory concentration (IC50) in test [1] worked out at 0.94 nM. Besides, the 50% effective concentration (EC50) in test [2] turned out to be 1340 nM.

Take `CCOC(=O)C[C@@H](NCc1cnc(C(=O)Nc2cccc(-c3cccc(NC(=O)c4cc(C5CC5)c(CN[C@H](CC(=O)OCC)C(=O)OCC)cn4)c3C)c2C)cc1C1CC1)C(=O)OCC` [Example 117, tetraethyl 2,2′-((((((2,2′-dimethyl-[1,1′-biphenyl]-3,3′-diyl)bis(azanediyl))bis(carbonyl))bis (4-cyclopropylpyridine-6,3-diyl))bis (methylene))bis(azanediyl))(2R,2′R)-disuccinate]: in test [1], the IC50 was greater than 400 nM. For the same molecule, the concentration giving a half-maximal response (EC50) in test [2] was greater than 10000 nM.

In the case of `Cc1c(NC(=O)c2cc(C3CC3)c(CN[C@H](CC(=O)O)C(=O)O)cn2)cccc1-c1cccc(NC(=O)c2cc(C3CC3)c(CN[C@H](CC(=O)O)C(=O)O)cn2)c1C` [Example 118, (2R,2′R)-2,2′-((((((2,2′-dimethyl-[1,1′-biphenyl]-3,3′-diyl)bis(azanediyl))bis(carbonyl))bis (4-cyclopropylpyridine-6,3-diyl))bis (methylene))bis(azanediyl))disuccinic acid], in test [1], the half-inhibitory concentration (IC50) was determined as 1.17 nM. Moreover, in test [2], the concentration for a half-maximal effect (EC50) worked out at 1040 nM.

`CCOC(=O)C(NCc1cnc(C(=O)Nc2cccc(-c3cccc(NC(=O)c4cc(C5CC5)c(CNC(C(=O)OCC)C(=O)OCC)cn4)c3C)c2C)cc1C1CC1)C(=O)OCC` [Example 119, tetraethyl 2,2′-((((((2,2′-dimethyl-[1,1′-biphenyl]-3,3′-diyl)bis(azanediyl))bis(carbonyl))bis(4-cyclopropylpyridine-6,3-diyl))bis(methylene))bis(azanediyl))dimalonate]: in test [1], the 50% inhibitory concentration (IC50) is greater than 400 nM. Besides, the EC50 in test [2] was greater than 10000 nM.

As for `Cc1c(NC(=O)c2cc(C3CC3)c(CNC(C(=O)O)C(=O)O)cn2)cccc1-c1cccc(NC(=O)c2cc(C3CC3)c(CNC(C(=O)O)C(=O)O)cn2)c1C` [Example 120, 2,2′-((((((2,2′-dimethyl-[1,1′-biphenyl]-3,3′-diyl)bis(azanediyl))bis(carbonyl))bis (4-cyclopropylpyridine-6,3-diyl))bis (methylene))bis(azanediyl))dimalonic acid], in test [1], the IC50 stood at 1.43 nM. The EC50 in test [2] was 1760 nM.

With `CCOC(=O)CNCc1cnc(C(=O)Nc2cccc(-c3cccc(NC(=O)c4cc(C5CC5)c(CNCC(=O)OCC)cn4)c3C)c2C)cc1C1CC1` [Example 121, diethyl 2,2′-((((((2,2′-dimethyl-[1,1′-biphenyl]-3,3′-diyl)bis(azanediyl))bis(carbonyl))bis(4-cyclopropylpyridine-6,3-diyl))bis(methylene))bis(azanediyl)) diacetate], the 50% inhibitory concentration (IC50) in test [1] is 16.6 nM. Besides, the half-maximal effective concentration (EC50) in test [2] turned out to be 1340 nM.

For the molecule `Cc1c(NC(=O)c2cc(C3CC3)c(CNCC(=O)O)cn2)cccc1-c1cccc(NC(=O)c2cc(C3CC3)c(CNCC(=O)O)cn2)c1C` [Example 122, 2,2′-((((((2,2′-dimethyl-[1,1′-biphenyl]-3,3′-diyl)bis(azanediyl))bis(carbonyl))bis(4-cyclopropylpyridine-6,3-diyl))bis(methylene))bis(azanediyl)) diacetic acid], the IC50 in test [1] turned out to be 1.14 nM. The EC50 in test [2] came to 19 nM.

As for `CCOC(=O)[C@H](C)NCc1cnc(C(=O)Nc2cccc(-c3cccc(NC(=O)c4cc(C5CC5)c(CN[C@@H](C)C(=O)OCC)cn4)c3C)c2C)cc1C1CC1` [Example 123], the IC50 in test [1] is 22 nM. In addition, in test [2], the 50% effective concentration (EC50) is 2410 nM.

With `Cc1c(NC(=O)c2cc(C3CC3)c(CN[C@@H](C)C(=O)O)cn2)cccc1-c1cccc(NC(=O)c2cc(C3CC3)c(CN[C@@H](C)C(=O)O)cn2)c1C` [Example 124, (2S,2S)-2,2′-((((((2,2′-dimethyl-[1,-1′-biphenyl]-3,3′-diyl)bis(azanediyl))bis (carbonyl))bis(4-cyclopropylpyridine-6,3-diyl))bis(methylene))bis(azanediyl)) dipropionic acid], the IC50 in test [1] came to 1.09 nM. Also, in test [2], the EC50 was 14.7 nM.

For the molecule `CCOC(=O)[C@@H](NCc1cnc(C(=O)Nc2cccc(-c3cccc(NC(=O)c4cc(C5CC5)c(CN[C@H](C(=O)OCC)C(C)C)cn4)c3C)c2C)cc1C1CC1)C(C)C` [Example 125, diethyl 2,2′-((((((2,2′-dimethyl-[1,1′-biphenyl]-3,3′-diyl)bis(azanediyl))bis(carbonyl))bis(4-cyclopropylpyridine-6,3-diyl))bis(methylene))bis(azanediyl)) (2S,2′S)-bis(3-methylbutanoate)], the 50% inhibitory concentration (IC50) in test [1] was greater than 2000 nM. The EC50 in test [2] was greater than 10000 nM.

With `Cc1c(NC(=O)c2cc(C3CC3)c(CN[C@H](C(=O)O)C(C)C)cn2)cccc1-c1cccc(NC(=O)c2cc(C3CC3)c(CN[C@H](C(=O)O)C(C)C)cn2)c1C` [Example 126, (2S,2S)-2,2-((((((2,2′-dimethyl-[1,1′-biphenyl]-3,3′-diyl)bis(azanediyl))bis (carbonyl))bis(4-cyclopropylpyridine-6,3-diyl))bis(methylene))bis(azanediyl)) bis(3-methylbutanoic acid)], the half-inhibitory concentration (IC50) in test [1] is 1.11 nM. Further, the half-maximal effective concentration (EC50) in test [2] worked out at 64 nM.

With `CCOC(=O)C1(NCc2cnc(C(=O)Nc3cccc(-c4cccc(NC(=O)c5cc(C6CC6)c(CNC6(C(=O)OCC)CC6)cn5)c4C)c3C)cc2C2CC2)CC1` [Example 127, diethyl 1,1′-((((((2,2′-dimethyl-[1,1′-biphenyl]-3,3′-diyl)bis(azanediyl))bis(carbonyl))bis(4-cyclopropylpyridine-6,3-diyl))bis(methylene))bis(azanediyl)) bis(cyclopropane-l-carboxylate)], the IC50 in test [1] worked out at 113 nM. In test [2], the concentration for a half-maximal effect (EC50) was greater than 10000 nM.

In the case of `Cc1c(NC(=O)c2cc(C3CC3)c(CNC3(C(=O)O)CC3)cn2)cccc1-c1cccc(NC(=O)c2cc(C3CC3)c(CNC3(C(=O)O)CC3)cn2)c1C` [Example 128, 1,1′-((((((2,2′-dimethyl-[1,1′-biphenyl]-3,3-diyl)bis(azanediyl))bis(carbonyl))bis (4-cyclopropylpyridine-6,3-diyl))bis (methylene))bis(azanediyl))bis (cyclopropane-1-carboxylic acid)], the IC50 in test [1] was 1.32 nM. In addition, the EC50 in test [2] was found to be 77.8 nM.

For `CCOC(=O)CN(C)Cc1cnc(C(=O)Nc2cccc(-c3cccc(NC(=O)c4cc(C5CC5)c(CN(C)CC(=O)OCC)cn4)c3C)c2C)cc1C1CC1` [Example 129], the concentration for half-maximal inhibition (IC50) in test [1] worked out at 102 nM. For the same molecule, the EC50 in test [2] is greater than 10000 nM.

Regarding `Cc1c(NC(=O)c2cc(C3CC3)c(CN(C)CC(=O)O)cn2)cccc1-c1cccc(NC(=O)c2cc(C3CC3)c(CN(C)CC(=O)O)cn2)c1C` [Example 130, 2,2′-((((((2,2′-dimethyl-[1,1′-biphenyl]-3,3′-diyl)bis(azanediyl))bis (carbonyl))bis(4-cyclopropylpyridine-6,3-diyl))bis(methylene))bis (methylazanediyl))diacetic acid], the IC50 in test [1] stood at 0.99 nM. Moreover, in test [2], the EC50 came to 600 nM.

On to `COC(=O)[C@@H]1CCN(Cc2cnc(C(=O)Nc3cccc(-c4cccc(NC(=O)c5cc(C6CC6)c(CN6CC[C@@H](C(=O)OC)C6)cn5)c4C)c3C)cc2C2CC2)C1` [Example 131, dimethyl 1,1′-(((((2,2′-dimethyl-[1,1′-biphenyl]-3,3′-diyl)bis(azanediyl))bis (carbonyl))bis(4-cyclopropylpyridine-6,3-diyl))bis(methylene))(3R,3′R)-bis (pyrrolidine-3-carboxylate)], for which the IC50 in test [1] was 21.8 nM. Further, the EC50 in test [2] was determined as 2580 nM.

In the case of `Cc1c(NC(=O)c2cc(C3CC3)c(CN3CC[C@@H](C(=O)O)C3)cn2)cccc1-c1cccc(NC(=O)c2cc(C3CC3)c(CN3CC[C@@H](C(=O)O)C3)cn2)c1C` [Example 132, (3R,3′R)-1,1′-(((((2,2′-dimethyl-[1,1′-biphenyl]-3,3′-diyl)bis(azanediyl))bis (carbonyl))bis(4-cyclopropylpyridine-6,3-diyl))bis(methylene))bis(pyrrolidine-3-carboxylic acid)], the IC50 in test [1] is 0.2 nM. Moreover, the 50% effective concentration (EC50) in test [2] was found to be 23.1 nM.

`COC(=O)[C@H]1CCN(Cc2cnc(C(=O)Nc3cccc(-c4cccc(NC(=O)c5cc(C6CC6)c(CN6CC[C@H](C(=O)OC)C6)cn5)c4C)c3C)cc2C2CC2)C1` [Example 133, dimethyl 1,1′-(((((2,2′-dimethyl-[1,1′-biphenyl]-3,3′-diyl)bis(azanediyl))bis (carbonyl))bis(4-cyclopropylpyridine-6,3-diyl))bis(methylene))(3S,3′S)-bis (pyrrolidine-3-carboxylate)]: the IC50 in test [1] was 11.8 nM. Further, the EC50 in test [2] amounted to 1900 nM.

In the case of `Cc1c(NC(=O)c2cc(C3CC3)c(CN3CC[C@H](C(=O)O)C3)cn2)cccc1-c1cccc(NC(=O)c2cc(C3CC3)c(CN3CC[C@H](C(=O)O)C3)cn2)c1C` [Example 134, (3S,3′S)-1,1′-(((((2,2′-dimethyl-[1,1′-biphenyl]-3,3′-diyl)bis(azanediyl))bis (carbonyl))bis(4-cyclopropylpyridine-6,3-diyl))bis(methylene))bis(pyrrolidine-3-carboxylic acid)], in test [1], the IC50 stood at 0.82 nM. The EC50 in test [2] turned out to be 21 nM.

The IC50 is the concentration that gives 50% inhibition. The term EC50 denotes the midpoint of the concentration-response curve.
